# In ChEMBL document CHEMBL1138331, “Potent antimalarial activity of 2-aminopyridinium salts, amidines, and guanidines” (J Med Chem, 2007):
# Experiments:
# Plasmodium falciparum = assay: microbe, parasite or virus in culture; conditions: Nigerian, 48 h
# Description: Antimalarial activity against Plasmodium falciparum Nigerian in human erythrocytes after 48 hrs
# Description for physchem: Dissociation constant, pKa by potentiometric titration
SMILES,IC50 (Plasmodium falciparum),pKa (physchem)
C(CCCCCCNC1=NCCCC1)CCCCCNC1=NCCCC1,3 nM,12.7
CN(C)/C(=N\C#N)NCCCCCCCCCCCCN/C(=N\C#N)N(C)C,8500 nM,–
Cc1ccc(-c2nn(CCCCCCCCCCCCn3nc(-c4ccc(C)cc4)sc3=N)c(=N)s2)cc1,5600 nM,8.1
C(CCCCCCNC1=NCCCCC1)CCCCCNC1=NCCCCC1,2.2 nM,–
CN1CCN=C1CCCCCCCCCCCCC1=NCCN1C,43 nM,11
Cc1nccn1CCCCCCCCCCCCn1ccnc1C,270 nM,–
Cc1cc[n+](CCCCCCCCCCCCCCCC[n+]2ccc(C)cc2N)c(N)c1,3.8 nM,13.6
Cc1cc[n+](CCCCCCCC[n+]2ccc(C)cc2N)c(N)c1,7.2 nM,–
C(CCCCCCC1=NCCN1)CCCCCC1=NCCN1,2 nM,13
C(CCCCCCNC1=NCCCN1)CCCCCNC1=NCCCN1,0.5 nM,–
N=c1sc2ccccc2n1CCCCCCCCCCCCn1c(=N)sc2ccccc21,4000 nM,–
FC(F)(F)c1ccc(OCC2CCCN2CCCCCCCCCCCCCCCCN2CCCC2COc2ccc(C(F)(F)F)cc2)cc1 (stereo unspecified),5400 nM,–
C(CCCCCCNC1=NCCN1)CCCCCNC1=NCCN1,1.7 nM,13.5
c1ccc2[nH]c(CCCCCCCCCCCCc3nc4ccccc4[nH]3)nc2c1,1800 nM,9
C[N+]1(CCCCCCCCCCCCCCCC[N+]2(C)CCCC2CO)CCCC1CO (stereo unspecified),1.5 nM,–
C(CCCCCCNC1=NCCC1)CCCCCNC1=NCCC1,3.8 nM,12.1
c1cn(CCCCCCCCCCCCn2ccnc2)cn1,2000 nM,–
N=c1sc(-c2cccc(Cl)c2)nn1CCCCCCCCCCCCn1nc(-c2cccc(Cl)c2)sc1=N,18500 nM,7.7
N=C(CCCCCCCCCCCCC(=N)N1CCCC1)N1CCCC1,0.8 nM,13.2

SMILES,IC50 (Plasmodium falciparum),pKa (physchem)
c1c[nH]c(CCCCCCCCCCCCc2ncc[nH]2)n1,1650 nM,9.8
OCC1CCCN1CCCCCCCCCCCCCCCCN1CCCC1CO (stereo unspecified),160 nM,–
N=c1n(CCCCCCCCCCCCn2c(=N)n(Cc3ccccc3)c3ccccc32)c2ccccc2n1Cc1ccccc1,450 nM,9.4
N=C1CCCN1CCCCCCCCCCCCN1CCCC1=N,4 nM,–
Cc1ccc[n+](CCCCCCCCCCCC[n+]2cccc(C)c2N)c1N,1.8 nM,13.3
N=c1ncc(-c2ccccc2)cn1CCCCCCCCCCCCn1cc(-c2ccccc2)cnc1=N,12.3 nM,11.3
CC1(C)CN=C(CCCCCCCCCCCCC2=NCC(C)(C)N2)N1,1 nM,–
N=C(N)NCCCCCCCCCCCCNC(=N)N,0.35 nM,–
CCN(CC)CCOCCCCCCCCCCCCOCCN(CC)CC,120 nM,–
N=c1sccn1CCCCCCCCCCCCn1ccsc1=N,800 nM,10.1
Cc1ccc(N)[n+](CCCCCCCCCCCC[n+]2cc(C)ccc2N)c1,0.5 nM,13
Nc1cc(-c2ccccc2)cc[n+]1CCCc1ccc(CCC[n+]2ccc(-c3ccccc3)cc2N)cc1,4.5 nM,12.6
Nc1ccc(-c2ccccc2)c[n+]1CCCc1ccc(CCC[n+]2cc(-c3ccccc3)ccc2N)cc1,13 nM,12.8
N=C(N)CCCCCCCCCCCCCCCCC(=N)N,100 nM,13.2
C(CCCCCCCCN1CCCC1)CCCCCCCN1CCCC1,110 nM,–
N=C(N)CCCCCCCCCCCCC(=N)N,0.3 nM,13.6
C(CCCCCCN/C(=N\C1CCCCC1)NC1CCCCC1)CCCCCN/C(=N\C1CCCCC1)NC1CCCCC1,21 nM,–
CC1CN=C(CCCCCCCCCCCCC2=NCC(C)N2)N1 (stereo unspecified),1 nM,–
Cn1c(=N)n(CCCCCCCCCCCCn2c(=N)n(C)c3ccccc32)c2ccccc21,65 nM,11.9

# The remaining lines, values ahead:
IC50 (Plasmodium falciparum),pKa (physchem),SMILES
260 nM,11.1,N=c1c2ccccc2ccn1CCCCCCCCCCCCn1ccc2ccccc2c1=N
6.3 nM,12.8,CN(C)C(=N)CCCCCCCCCCCCC(=N)N(C)C
3 nM,–,C(CCCCCCC1=NC2CCCCC2N1)CCCCCC1=NC2CCCCC2N1 (stereo unspecified)
760 nM,8,N=c1sc(-c2ccccc2)nn1CCCCCCCCCCCCn1nc(-c2ccccc2)sc1=N
29 nM,–,C[N+]1(CCCCCCCCCCCCCCCC[N+]2(C)CCCC2COc2ccc(C(F)(F)F)cc2)CCCC1COc1ccc(C(F)(F)F)cc1 (stereo unspecified)
3.3 nM,–,CC[N+](CC)(CC)CCOCCCCCCCCCCCCOCC[N+](CC)(CC)CC
0.6 nM,–,CC1(C)CN=C(NCCCCCCCCCCCCNC2=NCCCN2)NC1
8150 nM,7.8,N=c1sc(-c2cccs2)nn1CCCCCCCCCCCCn1nc(-c2cccs2)sc1=N
1.6 nM,14.1,CN(C)C(=N)NCCCCCCCCCCCCNC(=N)N(C)C
2.3 nM,13.5,Nc1cccc[n+]1CCCCCCCCCCCC[n+]1ccccc1N
1.4 nM,12.8,Nc1ccc(Cl)c[n+]1CCCCCCCCCCCC[n+]1cc(Cl)ccc1N
1550 nM,–,CCCCCCCCCCCC[n+]1ccc(C)cc1N
2.9 nM,12.6,Cc1cc[n+](CCCc2ccc(CCC[n+]3ccc(C)cc3N)cc2)c(N)c1
52000 nM,7.6,CCOC(=N)CCCCCCCCCCCCC(=N)OCC
110 nM,–,CCN(CC)CCCCCCCCCCCCCCCCN(CC)CC
540 nM,–,CCN(CC)CCCCCCCCCCCCN(CC)CC
50 nM,11.7,N=c1cc2ccc3ccccc3c2nn1CCCCCCCCCCCCn1nc2c(ccc3ccccc32)cc1=N
4.9 nM,12.6,N=C(CCCCCCCCCCCCC(=N)N1CCCCC1)N1CCCCC1
2 nM,12.6,CC(=N)NCCCCCCCCCCCCNC(C)=N
2.3 nM,13.1,C(CCCCCCC1=NCCCN1)CCCCCC1=NCCCN1
145 nM,11.7,N=c1ncccn1CCCCCCCCCCCCn1cccnc1=N
0.5 nM,13.5,Cc1cc[n+](CCCCCCCCCCCC[n+]2ccc(C)cc2N)c(N)c1
